Assay results reported in paper PMC3433414, “Oral Administration of the Pimelic Diphenylamide HDAC Inhibitor HDACi 4b Is Unsuitable for Chronic Inhibition of HDAC Activity in the CNS In Vivo” (PLoS ONE, 2012).

How the values were obtained:
[1] = system: P-glycoprotein (Pgp, MDR1); test: Effective efflux ratio in MDR1-MDCK cells; assay type: in vitro ADME; conditions: human, pH 7.4; MDCK overexpressing MDR1
Description: The MDR1-MDCKII and wild type MDCKII cell lines (obtained from SOLVO Biotechnology) were cultured in accordance with the guidelines provided by SOLVO Biotechnology. Both wild-type MDCK and MDR1-MDCK cells were seeded at a cell density of 2.3×10^5 cells/well into 24-well Transwell plates and cultured for three days to form monolayers. Test compound was loaded into the donor compartments of the Transwell plate (24-well) bearing MDR1-MDCK or wild type MDCK monolayers. Test compound was added to either the apical or basolateral chambers of the Transwell plate assembly at a concentration of 10 µM in Hanks’ Balanced Salt Solution containing 25 mM HEPES (pH 7.4). Lucifer Yellow was added to the apical buffer in all wells and its permeation monitored to assess integrity of the cell layer. […]
After 1 h incubation at 37°C, aliquots were taken from both chambers and added to acetonitrile containing analytical internal standard (carbamazepine) in a 96-well plate. Concentrations of compound in the samples were measured by LC-MS/MS. Concentrations of LY in the samples were measured using a fluorescence plate reader.
The apparent permeability (Papp) values of test compound were determined for both the apical to basal (A>B) and basal to apical (B>A) permeation and the efflux ratio (B>A: A>B) determined in both the wild type MDCK and MDR1-MDCK cells. […]

[2] = system: R6/2^300Q mice; design: method as in PMID 18829438; conditions: cited from earlier work
[3] = Partition into erythrocytes; assay type: in vitro ADME; conditions: mouse
[4] = system: Class IIa/HDAC8 HDACs; test: Cellular HDAC assay, Boc_Lys_TFA substrate, Jurkat E6.1 cells; assay type: cell-based; conditions: up to 50 µM
Description: Briefly, Jurkat E6.1 cells (obtained from the European Collection of Cell Cultures (ECACC)) were plated into 384 well plates at 75,000 cells/well in cellular assay buffer (RPMI without phenol red, 0.1% Fetal Bovine Serum, 10 mM HEPES, 1 mM Sodium Pyruvate). Compounds of interest were diluted in assay buffer (16-point concentration curve, 1% final DMSO) and were added to wells - unless stated otherwise in the results section - for a 2 h preincubation at 37°C prior to the addition of either 100 µM Boc_Lys_TFA or Boc_Lys_Ac. Cells were incubated for a further 3 h at 37°C, followed by the addition of a trypsin (1 mg/ml) and reference compound (Compound 26 or TSA) stop-step overnight to terminate the reaction and lyse the cells. Fluorescent counts were read the following morning on the Perkin Elmer EnVision. Z’ was 0.8 for both assays, with S:B of 19 for Boc_Lys_Ac assay, and 7 for Boc_Lys_TFA assay.
Each compound was tested in duplicate in concentration-response format on 3 separate days. For both biochemical and cellular assays, data is presented as % inhibition from maximal activity (maximal fluorescence response), which was defined as the fluorescence read in the presence of 1% DMSO, with 100% inhibition defined as the fluorescence read in the presence of substantial excess of the respective reference compounds (5 µM TSA, 50 µM Compound 26 depending on target). […]

[5] = system: histone acetylation in mouse brain; test: Histone acetylation in brain tissue (central pharmacodynamics); conditions: 150 mg/kg po bid, five consecutive days; 1 h post last dose
Description: Cortical tissue from the mice was assessed using specific antibodies for increases in acetylation of specific lysine residues on Histones H3 (H3K4, H3K9, H3K14) and H4 (H4K5) as well as global acetylation of H3 (Ac-H3) and H4 (Ac-H4). The acetylation level was normalized to total H3 and H4 expression level. The samples from the rest of the brain were analyzed for terminal 4b levels at the time of sacrifice. […] Mouse brains were harvested, dissected, immediately frozen in liquid nitrogen and stored at −80°C. Mouse brain tissue was homogenized (polytron homogenizer, 20 s) in 2 volumes of histone extraction buffer (1×PBS, 5% Triton X-100 (v/v), 3 mM DTT, 1 mM orthovanadate, 5 mM NaF, 1 mM PMSF, 5 mM Na Butyrate, Roche complete protease inhibitor tablet) and centrifuged at 900 g for 8 min at 4°C. The resulting pellet was washed twice in 1 ml of histone extraction buffer before being re-suspended in 2–3 volumes of 0.2 M HCl. Samples were then vortexed briefly and left to shake vigorously for 3 h at 4°C using a VXR Vibrax 1.5 ml polypropylene tube shaker (IKA). After shaking, samples were centrifuged at 900 g for 8 min at 4°C and the resulting supernatant was retained and neutralized with 0.2 volumes of 1 M NaOH.

Nc1ccccc1NC(=O)CCCCCC(=O)Nc1ccccc1 [Compound 4b]
efflux ratio at 1 h, 10 µM [1]: 4.9 | gene expression abnormalities ([2]; 150 mg/kg subcutaneous once daily for 3 days): successfully ameliorated gene expression abnormalities | motor performance and appearance in chronic efficacy study ([2]; drinking water, estimated 150 mg/kg/day, from 4 months of age): improved motor performance | concentrations in whole blood relative to plasma [3]: approximately 4 times | blood plasma ratio ([3]; whole blood, data not shown): ~3 | cellular inhibition, Class IIa/HDAC8 substrate [4]: no inhibition | histone acetylation in cortical tissue (H3K4, H3K9, H3K14, H4K5, Ac-H3, Ac-H4) [5]: failed to enhance histone acetylation
